According to patent US8440710B2, “HSL inhibitors useful in the treatment of diabetes” (Hoffmann-La Roche Inc., priority 2009, dated 2013):

biological target: T1, human HSL (Homo sapiens, UniProt Q05469); assay: Human Hormone-Sensitive Lipase (HSL) enzyme inhibition assay (colorimetric, DMPT substrate); assay type: biochemical; conditions: human full length HSL-His6, 2,3-dimercapto-1-propanol tributyrate substrate, 37° C. 20 minutes, absorbance at 405 nm; read-out: HSL hum IC50
T1 construct: generate a full length human HSL ORF with a 3′-His6 tag; made in house; host or cells: High 5 insect cells (baculovirus, pFast-BAC)
T1 sequence (Q05469 1-1076): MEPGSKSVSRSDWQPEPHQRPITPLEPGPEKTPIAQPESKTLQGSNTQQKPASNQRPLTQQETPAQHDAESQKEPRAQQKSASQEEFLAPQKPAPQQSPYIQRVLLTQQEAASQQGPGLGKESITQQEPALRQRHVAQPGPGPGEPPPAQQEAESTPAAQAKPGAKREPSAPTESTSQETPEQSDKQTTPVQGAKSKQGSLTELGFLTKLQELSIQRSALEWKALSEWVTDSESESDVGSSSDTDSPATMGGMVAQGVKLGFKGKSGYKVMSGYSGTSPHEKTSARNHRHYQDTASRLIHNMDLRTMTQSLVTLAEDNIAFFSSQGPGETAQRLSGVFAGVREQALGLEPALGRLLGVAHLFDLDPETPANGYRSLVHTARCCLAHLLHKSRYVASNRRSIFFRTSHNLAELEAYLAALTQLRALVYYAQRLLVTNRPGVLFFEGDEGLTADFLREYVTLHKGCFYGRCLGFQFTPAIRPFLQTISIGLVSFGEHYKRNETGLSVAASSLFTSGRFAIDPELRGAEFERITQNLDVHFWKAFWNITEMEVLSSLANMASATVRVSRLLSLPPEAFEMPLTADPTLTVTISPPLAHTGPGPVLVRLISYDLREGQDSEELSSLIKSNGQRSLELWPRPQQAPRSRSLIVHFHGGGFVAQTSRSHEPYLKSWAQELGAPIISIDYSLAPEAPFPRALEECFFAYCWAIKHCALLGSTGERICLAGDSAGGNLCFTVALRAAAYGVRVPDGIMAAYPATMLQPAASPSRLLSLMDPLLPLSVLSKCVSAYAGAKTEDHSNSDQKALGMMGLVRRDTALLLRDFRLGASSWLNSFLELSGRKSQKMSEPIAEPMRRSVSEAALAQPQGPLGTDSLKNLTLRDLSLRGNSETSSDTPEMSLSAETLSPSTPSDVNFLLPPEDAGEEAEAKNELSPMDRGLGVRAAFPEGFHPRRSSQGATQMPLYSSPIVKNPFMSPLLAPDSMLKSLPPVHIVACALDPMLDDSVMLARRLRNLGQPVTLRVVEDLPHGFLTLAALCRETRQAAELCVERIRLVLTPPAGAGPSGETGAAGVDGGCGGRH
Outline: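 Full-length human HSL with C-terminal His6, expressed in baculovirus-infected High 5 cells and Ni-NTA purified, was added (15 ug/ml stock) to 1.5 mM DMPT in 100 mM MOPS pH 7.2, 0.2 mg/ml fatty acid-free BSA containing compound. After 20 min at 37 °C, DTNB with SDS/Triton X-100 was added; A405 read after 15 min at RT.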

IC50 [nM]	SMILES
30	CC[C@]1(O)CC[C@]2(CCN(c3ccc(O[C@@H](C)C(F)(F)F)nc3)C2=O)CC1 [Example 171, (5α,8α)-8-Ethyl-8-hydroxy-2-[6-((S)-2,2,2-trifluoro-1-methyl-ethoxy)-pyridin-3-yl]-2-aza-spiro[4.5]decan-1-one]
20	CCC[C@]1(O)CC[C@]2(CCN(c3ccc(O[C@@H](C)C(F)(F)F)nc3)C2=O)CC1 [Example 172, (5α,8α)-8-Hydroxy-8-propyl-2-[6-((S)-2,2,2-trifluoro-1-methyl-ethoxy)-pyridin-3-yl]-2-aza-spiro[4.5]decan-1-one]
50	C[C@H](Oc1ccc(N2CC[C@]3(CC[C@@](O)(C(F)(F)F)CC3)C2=O)cn1)C(F)(F)F [Example 173, (5α,8α)-8-Hydroxy-8-trifluoromethyl-2-[6-((S)-2,2,2-trifluoro-1-methyl-ethoxy)-pyridin-3-yl]-2-aza-spiro[4.5]decan-1-one]
60	C[C@@H](Oc1ccc(N2CC[C@]3(CC[C@@](O)(C(F)(F)F)CC3)C2=O)cn1)C(F)(F)F [Example 174, (5α,8α)-8-Hydroxy-8-trifluoromethyl-2-[6-((R)-2,2,2-trifluoro-1-methyl-ethoxy)-pyridin-3-yl]-2-aza-spiro[4.5]decan-1-one]
40	CC[C@]1(O)CC[C@]2(CCN(c3ccc(O[C@H](C)C(F)(F)F)nc3)C2=O)CC1 [Example 175, (5α,8α)-8-Ethyl-8-hydroxy-2-[6-((R)-2,2,2-trifluoro-1-methyl-ethoxy)-pyridin-3-yl]-2-aza-spiro[4.5]decan-1-one]
20	CCC[C@]1(O)CC[C@]2(CCN(c3ccc(O[C@H](C)C(F)(F)F)nc3)C2=O)CC1 [Example 176, (5α,8α)-8-Hydroxy-8-propyl-2-[6-((R)-2,2,2-trifluoro-1-methyl-ethoxy)-pyridin-3-yl]-2-aza-spiro[4.5]decan-1-one]
30	CC(Oc1ccc(N2CC[C@]3(CC[C@@](O)(C(F)(F)F)CC3)C2=O)cc1)C(F)(F)F (stereo partly drawn) [Example 177, (5α,8α)-8-Hydroxy-8-trifluoromethyl-2-[4-(2,2,2-trifluoro-1-methyl-ethoxy)-phenyl]-2-aza-spiro[4.5]decan-1-one]
40	C[C@H](Oc1ccc(N2CC[C@]3(CC[C@@](O)(C(F)(F)F)CC3)C2=O)cc1)C(F)(F)F [Example 177a, (5α,8α)-8-Hydroxy-8-trifluoromethyl-2-[4-((S)-2,2,2-trifluoro-1-methyl-ethoxy)-phenyl]-2-aza-spiro[4.5]decan-1-one]
40	C[C@@H](Oc1ccc(N2CC[C@]3(CC[C@@](O)(C(F)(F)F)CC3)C2=O)cc1)C(F)(F)F [Example 177b, (5α,8α)-8-Hydroxy-8-trifluoromethyl-2-[4-((R)-2,2,2-trifluoro-1-methyl-ethoxy)-phenyl]-2-aza-spiro[4.5]decan-1-one]
150	O=C1N(c2ccc(OCC(F)(F)F)nc2)CC[C@]12CC[C@@](O)(C(F)(F)F)CC2 [Example 178, (5α,8α)-8-Hydroxy-2-[6-(2,2,2-trifluoro-ethoxy)-pyridin-3-yl]-8-trifluoromethyl-2-aza-spiro[4.5]decan-1-one]
30	C[C@@H](Oc1ccc(N2CC[C@]3(CC[C@@](O)(C4CC4)CC3)C2=O)cn1)C(F)(F)F [Example 179, (5α,8α)-8-Cyclopropyl-8-hydroxy-2-[6-((R)-2,2,2-trifluoro-1-methyl-ethoxy)-pyridin-3-yl]-2-aza-spiro[4.5]decan-1-one]
30	C[C@H](Oc1ccc(N2CC[C@]3(CC[C@@](O)(C4CC4)CC3)C2=O)cn1)C(F)(F)F [Example 180, (5α,8α)-8-Cyclopropyl-8-hydroxy-2-[6-((S)-2,2,2-trifluoro-1-methyl-ethoxy)-pyridin-3-yl]-2-aza-spiro[4.5]decan-1-one]

More lines, now with the values behind:

SMILES	IC50 [nM]
CCc1ccc(CCN2CC[C@]3(CC[C@@](O)(C(C)C)CC3)C2=O)cc1 [Example 161, (5α,8α)-2-(4-Ethylphenethyl)-8-hydroxy-8-isopropyl-2-aza-spiro[4.5]decan-1-one]	10
CCC[C@]1(O)CC[C@@]2(CCN(c3ccc(OC(C)C(F)(F)F)cc3)C2=O)CC1 (stereo partly drawn) [Example 163, (5α,8β)-8-Hydroxy-8-propyl-2-[4-(2,2,2-trifluoro-1-methyl-ethoxy)-phenyl]-2-aza-spiro[4.5]decan-1-one]	790
CCC[C@]1(O)CC[C@]2(CCN(c3ccc(OC(C)C(F)(F)F)cc3)C2=O)CC1 (stereo partly drawn) [Example 164, (5α,8α)-8-Hydroxy-8-propyl-2-[4-(2,2,2-trifluoro-1-methyl-ethoxy)-phenyl]-2-aza-spiro[4.5]decan-1-one]	20
CCC[C@]1(O)CC[C@]2(CCN(c3ccc(O[C@@H](C)C(F)(F)F)cc3)C2=O)CC1 [Example 164a, (5α,8α)-8-Hydroxy-8-propyl-2-[4-((S)-2,2,2-trifluoro-1-methyl-ethoxy)-phenyl]-2-aza-spiro[4.5]decan-1-one]	20
CCC[C@]1(O)CC[C@]2(CCN(c3ccc(O[C@H](C)C(F)(F)F)cc3)C2=O)CC1 [Example 164b, (5α,8α)-8-Hydroxy-8-propyl-2-[4-((R)-2,2,2-trifluoro-1-methyl-ethoxy)-phenyl]-2-aza-spiro[4.5]decan-1-one]	20
CC[C@]1(O)CC[C@]2(CCN(c3ccc(OC(C)C(F)(F)F)cc3)C2=O)CC1 (stereo partly drawn) [Example 165, (5α,8α)-8-Ethyl-8-hydroxy-2-[4-(2,2,2-trifluoro-1-methyl-ethoxy)-phenyl]-2-aza-spiro[4.5]decan-1-one]	20
CC[C@]1(O)CC[C@]2(CCN(c3ccc(O[C@@H](C)C(F)(F)F)cc3)C2=O)CC1 [Example 165a, (5α,8α)-8-Ethyl-8-hydroxy-2-[4-((S)-2,2,2-trifluoro-1-methyl-ethoxy)-phenyl]-2-aza-spiro[4.5]decan-1-one]	20
CC[C@]1(O)CC[C@]2(CCN(c3ccc(O[C@H](C)C(F)(F)F)cc3)C2=O)CC1 [Example 165b, (5α,8α)-8-Ethyl-8-hydroxy-2-[4-((R)-2,2,2-trifluoro-1-methyl-ethoxy)-phenyl]-2-aza-spiro[4.5]decan-1-one]	30
O=C1N(c2ccc(OCC(F)(F)F)nc2)CC[C@]12CC[C@@](O)(CCC(F)(F)F)CC2 [Example 166, (5α,8α)-8-Hydroxy-2-[6-(2,2,2-trifluoro-ethoxy)-pyridin-3-yl]-8-(3,3,3-trifluoro-propyl)-2-aza-spiro[4.5]decan-1-one]	40
CCC[C@]1(O)CC[C@]2(CCN(c3ccc(OCC(F)(F)F)nc3)C2=O)CC1 [Example 167, (5α,8α)-8-Hydroxy-8-propyl-2-[6-(2,2,2-trifluoro-ethoxy)-pyridin-3-yl]-2-aza-spiro[4.5]decan-1-one]	40
CC[C@]1(O)CC[C@]2(CCN(c3ccc(OCC(F)(F)F)nc3)C2=O)CC1 [Example 168, (5α,8α)-8-Ethyl-8-hydroxy-2-[6-(2,2,2-trifluoro-ethoxy)-pyridin-3-yl]-2-aza-spiro[4.5]decan-1-one]	70
CC[C@]1(O)CC[C@]2(CCN(c3ccc(CCC(F)(F)F)cc3)C2=O)CC1 [Example 169, (5α,8α)-8-Ethyl-8-hydroxy-2-[4-(3,3,3-trifluoro-propyl)-phenyl]-2-aza-spiro[4.5]decan-1-one]	50
CCC[C@]1(O)CC[C@]2(CCN(c3ccc(CCC(F)(F)F)cc3)C2=O)CC1 [Example 170, (5α,8α)-8-Hydroxy-8-propyl-2-[4-(3,3,3-trifluoro-propyl)-phenyl]-2-aza-spiro[4.5]decan-1-one]	50
